# Data reported in patent publication US11154519B2, “Inhibitors and their uses” (MEDICAL RESEARCH COUNCIL, priority 2015, dated 2021).
# Key:
# [1] = tested on: R15A or R15B; assay: Selective binding towards R15A or R15B (based on SPR); set-up: species or system human
# Procedure: In one embodiment, the compounds of formula IB inhibit PPP1R15A and PPP1R15B. Inhibition of PPP1R15A and PPP1R15B can be determined from binding analysis. For example, binding can be analysed using SPR (surface plasmon resonance) to obtain KD values. A PPP1R15A and PPP1R15B inhibitor may be defined as a compound where the difference in KD values between R15A and R15B is no more than about 3 fold.
# Small molecules were stored as 50 mM stock solutions in 100% DMSO. Prior to determining binding constants, serial dilutions of either 12 or 8 concentrations of the compounds were prepared in the running buffer in a 96-well plate. Prior to each compound dilution series the regulatory subunit, MBP-R15A^325-636-His or MBP-R15B^340-698-His, was diluted to 10 μM in the running buffer and captured on the bio-PP1c surface at a flow rate of 30 μl/min for 1 minute to form the holophosphatase complex on the sensor chip surface. This was followed by 1 minute stabilization period, to wash off any unspecific binding. Then, without regenerating the surface, the compound dilution series was injected onto the surface of the chip at a flow rate of 30 μl/min for 1 minute, followed by 2 minutes dissociation time. After each dilution series the surface was regenerated using 3 M NaCl for 90 seconds. After regeneration, SPR responses generally returned to base levels and the bio-PP1c surface was ready for the next compound dilution series. In order to be able to correct for small variations in DMSO concentration between samples, eight solvent samples ranging from 0.06 to 8% DMSO were injected every 50th cycle. The flow cell temperature was 10° C.
# Sensorgrams were analyzed using the Biacore T200 evaluation software and the binding constants determined based on a steady-state model. Kinetic experiments are carried out using different concentrations of the compound and their respective equilibrium binding levels determined.
# [2] = tested on: HeLa cells; assay: Cell death dose response (CellTox green, IncuCyte); format: cell-based; details: for EC50: Homo sapiens, area under % cell death vs time curve against log conc, read-out: Effect on cell death ⇒ EC50; for Effect on cell death: IncuCyte, 0-20 μM
# Procedure: Toxicity of the compounds is assessed using Cell viability Counting Kit-8 (Dojindo) or in a Incucyte (Essenbioscience) using both phase contrast and IncuCyte™ Cytotox Green Reagent.
# HeLa cells (40,000 cells/ml) were plated in a 96-well plate and treated with different concentrations (0-20 μM) of a compound as indicated in the presence of 250 ng/ml Tunicamycin for 72 hours. To monitor cell death 1/2000 dilution of the CellTox green dye (Promega) was added to the media. The growth of the cells was monitored over time and pictures taken every 2 hours with the IncuCyte ZOOM system and analysed by the IncuCyte ZOOM software (Essen BioScience). […] Cytoprotection against ER stress can be measured by a suitable assay. In this instance, cytoprotection was measured in HeLa cells in which ER stress was elicited by the addition of media containing tunicamycin, a drug that blocks N-glycosylation, thereby preventing protein folding and inducing the unfolded protein response. Cell viability was then detected in the presence and absence of a compound listed in Table 1 after a set period of time, by monitoring cell growth over time. Cytoprotection from ER stress was measured in terms of the percentage increase in viable cells (relative to control) after ER stress.
# EC50 were extrapolated from dose response experiments on cell death. Data from IncuCyte was plotted and analysed in Prism. The “% of cell death” for each data point. For each concentration there is a % of cell death vs time, the area under the curve was taken and plotted against log conc=>EC50 (analysis in Prism).
SMILES,Selective binding towards R15A or R15B (based on SPR) [1],EC50 [2],Effect on cell death [2]
"[H]/N=C(\N)NN=Cc1ccc(Cl)cc1 [Compound 1, (E)-2-((4-chlorophenyl)methylene)hydrazine-1-carboximidamide]",R15AB (A PPP1R15A and PPP1R15B inhibitor may be defined as a compound where the difference in KD values between R15A and R15B is no more than about 3 fold),4.9 µM,Yes
"N=C(N)N/N=C/c1cc(Cl)c(Cl)c(Cl)c1 [Compound 3, (E)-2-(3,4,5-trichlorobenzylidene)hydrazine-1-carboximidamide]",R15AB (A PPP1R15A and PPP1R15B inhibitor may be defined as a compound where the difference in KD values between R15A and R15B is no more than about 3 fold),9.17 µM,Yes
"[H]/N=C(\N)NN=Cc1cc(Cl)c(F)c(Cl)c1 [Compound 5, (E)-2-(3,5-dichloro-4-fluorobenzylidene)hydrazine-1-carboximidamide]",R15AB (A PPP1R15A and PPP1R15B inhibitor may be defined as a compound where the difference in KD values between R15A and R15B is no more than about 3 fold),9.46 µM,Yes
"[H]/N=C(\N)NN=Cc1ccc(Cl)c(Cl)c1Cl [Compound 6, (E)-2-(2,3,4-trichlorobenzylidene)hydrazine-1-carboximidamide]",R15AB (A PPP1R15A and PPP1R15B inhibitor may be defined as a compound where the difference in KD values between R15A and R15B is no more than about 3 fold),9.65 µM,Yes
"[H]/N=C(\N)NN=Cc1cc(F)c(Cl)cc1Cl [Compound 7, (E)-2-(2,4-dichloro-5-fluorobenzylidene)hydrazine-1-carboximidamide]",R15AB (A PPP1R15A and PPP1R15B inhibitor may be defined as a compound where the difference in KD values between R15A and R15B is no more than about 3 fold),11.5 µM,Yes
"[H]/N=C(\N)NN=Cc1ccc(Cl)c(F)c1 [Compound 8, (E)-2-(4-chloro-3-fluorobenzylidene)hydrazine-1-carboximidamide]",R15AB (A PPP1R15A and PPP1R15B inhibitor may be defined as a compound where the difference in KD values between R15A and R15B is no more than about 3 fold),11.7 µM,Yes
"[H]/N=C(\N)NN=Cc1cccc(Cl)c1Br [Compound 9, (E)-2-(2-bromo-3-chlorobenzylidene)hydrazine-1-carboximidamide]",R15A (A “selective inhibitor” may be defined as a compound where the difference in KD values between R15A and R15B is greater than 3 fold),12 µM,Yes
"[H]/N=C(\N)NN=Cc1cc(Cl)cc(Cl)c1Cl [Compound 10, (E)-2-(2,3,5-trichlorobenzylidene)hydrazine-1-carboximidamide]",R15AB (A PPP1R15A and PPP1R15B inhibitor may be defined as a compound where the difference in KD values between R15A and R15B is no more than about 3 fold),12.5 µM,Yes
"[H]/N=C(\N)NN=Cc1ccc(Cl)c(Cl)c1 [Compound 11, (E)-2-(3,4-dichlorobenzylidene)hydrazine-1-carboximidamide]",R15AB (A PPP1R15A and PPP1R15B inhibitor may be defined as a compound where the difference in KD values between R15A and R15B is no more than about 3 fold),12.7 µM,Yes
"[H]/N=C(\N)NN=Cc1ccc(Cl)c(F)c1Cl [Compound 13, (E)-2-(2,4-dichloro-3-fluorobenzylidene)hydrazine-1-carboximidamide]",R15AB (A PPP1R15A and PPP1R15B inhibitor may be defined as a compound where the difference in KD values between R15A and R15B is no more than about 3 fold),15.5 µM,Yes
